The text below walks through data of patent US20240248074A1, “METHOD AND SYSTEM FOR SINGLE-CELL BIOPHYSICAL PROFILING USING A MICROFLUIDIC DEVICE” (NANYANG TECHNOLOGICAL UNIVERSITY, priority 2021, published 2024).

The test system of assay [1] is primary neutrophils. Nature of the assay: Multi-parametric biophysical (impedance) profiling of primary neutrophils treated with stimuli. It is filed as cell-based, human. Particulars: for cell size: 2 hr treatment vs control (FIG. 13B, E); for correlation between CD66b expression and cell size: Example 5 (FIG. 20); for electrical size (cell size): 2 hr treatment (FIG. 17D); for nucleus opacity (|Z|12 MHz/|Z|0.3 MHz): 2 hr treatment (FIG. 17G); for electrical deformability index: 2 hr treatment vs untreated neutrophils (FIG. 17F); for UMAP projection of biophysical features (shift vs control): Example 6, 10 biophysical features (FIG. 21).

Assay [2] deals with primary neutrophils. The assay can be described thus: Flow cytometric analysis of neutrophil activation markers and F-actin. In kind it is cell-based, human. Particulars: for CD11 b expression / CD66b expression: Example 4, 2 hr treatment (FIG. 14). Background: In flow cytometry, cells or beads pass a laser one at a time.
Description: The staining protocols for leukocyte identification are similar as previously described^50. The samples were stained for 30 min at 4° C. with FITC-labelled anti-human CD11 b and allophycocyanin (APC)-labelled anti-human CD66b antibodies. Non-specific antibody binding was examined using corresponding isotype negative control antibodies. The cells were washed once prior to flow cytometry analysis. All antibodies were purchased from eBioscience (1:20 dilution) and analyzed using a BD LSR Fortessa flow cytometer (BD Biosciences).
In assay [3] the test system is primary neutrophils. The assay can be described thus: Annexin V/Propidium iodide (PI) live-dead staining, flow cytometry. It is filed as cell-based, human. Particulars: Example 5; STS 1 μM, 2 hr (FIG. 18).
A further assay deals with HL-60. The assay can be described thus: Immunostaining and flow cytometric analysis of F-actin in HL-60. Particulars: treated HL-60 vs control (FIG. 10 B, D, E). In kind it is cell-based. The source says: The effect of cytoskeleton disruptors, such as cytochalasin D (CytoD) and latrunculin B (LatB), on HL-60 deformability, was studied (FIG. 10 A-E).
Assay [4] relates to HL-60 (leukemia cell lines). In kind it is cell-based.
Where [5] appears, read: HL-60 treated with cytoskeleton disruptor vs DMSO treated control (FIG. 10).

“Also recorded” adds a separate entry of the source. Where two headings read alike, the source gives them in different places.

Turning to `CCCCCCCCCCCCCC(=O)O[C@@H]1[C@@H](C)[C@@]2(O)[C@@H](C=C(CO)C[C@]3(O)C(=O)C(C)=C[C@@H]23)[C@@H]2C(C)(C)[C@]12OC(C)=O` [PMA, Phorbol Myristate Acetate], the cell size entry in the assay with primary neutrophils [1] (Example 4) is “larger than control”. In addition, the “impedance profile (cell size / opacity clusters)” value in the assay with primary neutrophils [1] (Example 4, PMA 200 nM, 2 hr) was “two distinct clusters”. In addition, in the assay on primary neutrophils [1], the “correlation between CD66b expression and cell size” value was “increase in CD66b expression with cell size”; the “UMAP projection of biophysical features (shift vs control)” value (“UMAP projection … (shift vs control)” for short) is reported as “strong biophysical changes”. Also, in the assay on primary neutrophils [1] (Example 5), the “electrical size (cell size)” value is given as “largest increase in cell size”, the “nucleus opacity (|Z|12 MHz/|Z|0.3 MHz)” value was “significant decrease in nucleus opacities” and the electrical deformability index entry is listed as “more deformable”. For the same compound, in the assay on primary neutrophils [1] (Example 5, PMA 200 nM, 2 hr (FIG. 19)), the “impedance profile (cell clusters / populations)” value is “two distinct cell clusters; also recorded: two distinct cell populations of different size and deformability”. Besides, in the assay with primary neutrophils [2], the CD11 b expression entry is “elevated expressions” and the CD66b expression entry is “elevated expressions”.

Take `CN[C@@H]1C[C@H]2O[C@@](C)([C@@H]1OC)n1c3ccccc3c3c4c(c5c6ccccc6n2c5c31)C(=O)NC4` [STS, Staurosporine]: the “Annexin V / PI expression” value in the assay on primary neutrophils [3] is given as “increased Annexin V expression”. Besides, in the assay with primary neutrophils [1] (Example 5), the “nucleus opacity (|Z|12 MHz/|Z|0.3 MHz)” value is on record as “higher nucleus opacity”. For the same compound, in the assay with primary neutrophils [1] (Example 5, 2 hr treatment vs control (FIG. 17E)), the membrane opacity entry is “significant increase in membrane opacity”. Moreover, the “UMAP projection … (shift vs control)” value in the assay with primary neutrophils [1] was “strong biophysical changes”.

For the compound `C=C1[C@@H](C)[C@H]2[C@H](Cc3ccccc3)NC(=O)[C@]23[C@H](OC(C)=O)/C=C/[C@@](C)(O)C(=O)[C@@H](C)C/C=C/[C@H]3[C@@H]1O` [cytochalasin D], in the assay with HL-60, the F-actin expression result is recorded as “decreased F-actin expression”. For the same compound, the electrical deformability index result in assay [4] (setting [5]) is on record as “higher electrical deformability index”.

In the case of `CSCC[C@H](NC=O)C(=O)N[C@@H](CC(C)C)C(=O)N[C@@H](Cc1ccccc1)C(=O)O` [fMLP, N-Formylmethionyl-leucyl-phenylalanine], in the assay on primary neutrophils [1] (Example 4), the cell size entry is given as “larger than control”. Moreover, the “electrical deformability (deformability index)” value in the assay on primary neutrophils [1] (Example 4, 2 hr, fMLP 1 μM, glucose 30 mM, PMA 200 nM, vs untreated control (FIG. 13D)) is on record as “stiffer cell properties”. Further, in the assay on primary neutrophils [1], the “correlation between CD66b expression and cell size” value was “increase in CD66b expression with cell size”; the “UMAP projection … (shift vs control)” value was “smaller shifts in different directions”. Besides, in the assay with primary neutrophils [1] (Example 5), the “electrical size (cell size)” value is reported as “increased” and the electrical deformability index result was “negligible changes”. For the same compound, in the assay on primary neutrophils [2], the CD11 b expression result is on record as “elevated expressions” and the CD66b expression entry was “elevated expressions”. Besides, the “F-actin expression (MFI)” value in the assay on primary neutrophils [2] (Example 5, 2 hr treatment (FIG. 17C)) is listed as “highest F-actin expression; also recorded: increased F-actin expression”.

As for `C/C1=C/C(=O)O[C@@H]2C[C@@H](CC[C@H](C)/C=C\CC1)O[C@@](O)([C@@H]1CSC(=O)N1)C2` [latrunculin B], the F-actin expression entry in the assay with HL-60 was “decreased F-actin expression”. For the same compound, the electrical deformability index result in assay [4] (setting [5]) is reported as “higher electrical deformability index”.

Take paraformaldehyde [PFA]: in assay [4], the cell size entry is listed as “smaller cell size” and the electrical deformability index result was “lower than untreated control”.
